{
  "source": "ChEMBL document CHEMBL5550215",
  "about": "“Discovery of Novel Imidazo[1,2-a]pyridine-Based HDAC6 Inhibitors as an Anticarcinogen with a Cardioprotective Effect” (J Med Chem, 2024)",
  "key": {"[1]": {"experiment": "Observed clearance in male Sprague-Dawley rat at 7 mg/kg,iv measured upto 8 hrs by UPLC-MS/MS analysis", "assay_type": "ADME, organism-based", "settings": "in vivo"}, "[2]": {"target": "Histone deacetylase 1 (Homo sapiens, UniProt Q13547)", "sequence (Q13547 whole entry)": "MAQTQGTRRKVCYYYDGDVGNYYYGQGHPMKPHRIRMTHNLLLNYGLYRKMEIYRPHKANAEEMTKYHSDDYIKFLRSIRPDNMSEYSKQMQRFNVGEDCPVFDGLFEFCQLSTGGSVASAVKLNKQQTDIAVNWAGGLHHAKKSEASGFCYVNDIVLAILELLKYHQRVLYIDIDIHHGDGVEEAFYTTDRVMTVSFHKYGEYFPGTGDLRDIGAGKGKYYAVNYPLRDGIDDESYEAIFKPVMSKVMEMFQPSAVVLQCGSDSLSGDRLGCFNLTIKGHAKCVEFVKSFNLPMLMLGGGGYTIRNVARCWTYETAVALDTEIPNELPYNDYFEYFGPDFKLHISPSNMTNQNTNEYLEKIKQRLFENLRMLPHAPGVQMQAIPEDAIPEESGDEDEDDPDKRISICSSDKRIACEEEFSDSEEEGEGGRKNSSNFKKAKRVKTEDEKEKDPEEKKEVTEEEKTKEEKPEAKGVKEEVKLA", "experiment": "Inhibition of HDAC1 (unknown origin)"}, "[3]": {"experiment": "Tmax in male Sprague-Dawley rat at 7 mg/kg,po measured upto 8 hrs by UPLC-MS/MS analysis", "assay_type": "ADME, organism-based", "settings": "in vivo"}, "[4]": {"test_system": "H9c2", "experiment": "Cardioprotective activity in H2O2 induced myocardial injury in rat H9c2 cells assessed as effect on SOD level at upto 8 uM by q-PCR analysis", "assay_type": "functional, cell-based"}, "[5]": {"test_system": "MGC-803", "experiment": "Antitumor activity against human MGC-803 cells xenografted in […] mouse model assessed as decrease in HDAC6 expression administered as IP dose by Western blot analysis", "assay_type": "functional, cell-based", "settings": "dose 25-50 mg/kg"}, "[6]": {"test_system": "BGC-823", "experiment": "Antiproliferative activity against human BGC-823 cells assessed as inhibition of cell growth by MTT assay"}, "[7]": {"test_system": "Mus musculus", "experiment": "Cardioprotective activity against myocardial ischemia/reperfusion induced C57BL/6J mouse model assessed as reduction in IL-1 beta expression at 2.5 to 10 mg/kg", "assay_type": "functional, organism-based", "settings": "dose 2.5-10 mg/kg"}, "[8]": {"test_system": "H9c2", "experiment": "Cardioprotective activity in H2O2 induced myocardial injury in rat H9c2 cells assessed as downregulation of IL-18 expression", "assay_type": "functional, cell-based", "settings": "dose <= 8.0 µM"}, "[9]": {"test_system": "MGC-803", "experiment": "Induction of apoptosis in human MGC-803 cells measured after 48 hrs by Annexin V-EGFP and PI staining based flow cytometry analysis", "assay_type": "functional, cell-based", "settings": "dose <= 2.0 µM"}, "[10]": {"test_system": "MGC-803", "experiment": "Induction of apoptosis in human MGC-803 cells assessed as late apoptotic cells at 1 uM measured after 48 hrs by Annexin V-EGFP and PI staining based flow cytometry analysis (reference value: 3.16%)", "assay_type": "functional"}, "[11]": {"test_system": "H9c2", "experiment": "Cardioprotective activity in H2O2 induced myocardial injury in rat H9c2 cells assessed as effect on HO-1 level at upto 8 uM by q-PCR analysis", "assay_type": "functional, cell-based"}, "[12]": {"test_system": "TE-1", "experiment": "Antiproliferative activity against human TE-1 cells assessed as inhibition of cell growth by MTT assay"}, "[13]": {"experiment": "AUClast in male Sprague-Dawley rat at 7 mg/kg,iv measured upto 8 hrs by UPLC-MS/MS analysis", "assay_type": "ADME, organism-based", "settings": "in vivo"}, "[14]": {"test_system": "H9c2", "experiment": "Cardioprotective activity in H2O2 induced myocardial injury in rat H9c2 cells assessed as effect on LC3 level at upto 8 uM by q-PCR analysis", "assay_type": "functional, cell-based"}, "[15]": {"test_system": "MGC-803", "experiment": "Induction of apoptosis in human MGC-803 cells assessed as necrotic cells at 0.5 uM measured after 48 hrs by Annexin V-EGFP and PI staining based flow cytometry analysis (reference value: 3.90%)", "assay_type": "functional"}, "[16]": {"test_system": "H9c2", "experiment": "Cardioprotective activity against H2O2 induced myocardial damage in rat H9c2 cells harbouring Ad.GFP assessed as decrease in LDH leakage rate at 8 uM by absorbance based analysis", "assay_type": "functional, cell-based"}, "[17]": {"test_system": "Mus musculus", "experiment": "Cardioprotective activity against myocardial ischemia/reperfusion induced C57BL/6J mouse model assessed as alleviation of severe edema at 10 mg/kg by H and E staining based analysis", "assay_type": "functional, organism-based"}, "[18]": {"experiment": "Cmax in male Sprague-Dawley rat at 7 mg/kg,iv measured upto 8 hrs by UPLC-MS/MS analysis", "assay_type": "ADME, organism-based", "settings": "in vivo"}, "[19]": {"test_system": "MKN-45", "experiment": "Antiproliferative activity against human MKN-45 cells assessed as inhibition of cell growth by MTT assay"}, "[20]": {"test_system": "MGC-803", "experiment": "Induction of apoptosis in human MGC-803 cells assessed as early apoptotic cells at 1 uM measured after 48 hrs by Annexin V-EGFP and PI staining based flow cytometry analysis (reference value: 0.66%)", "assay_type": "functional"}, "[21]": {"test_system": "MGC-803", "experiment": "Antitumor activity against human MGC-803 cells xenografted in […] mouse model assessed as suppression of tumor mass at 25 to 50 mg/kg, ip measured upto 21 days with continuous administration for 5 days followed by two days break", "assay_type": "functional, organism-based", "settings": "dose 25-50 mg/kg, time <= 21.0 day"}, "[22]": {"test_system": "Mus musculus", "experiment": "Cardioprotective activity against myocardial ischemia/reperfusion induced C57BL/6J mouse model assessed as reduction in IL-18 expression at 2.5 to 10 mg/kg", "assay_type": "functional, organism-based", "settings": "dose 2.5-10 mg/kg"}, "[23]": {"test_system": "Mus musculus", "experiment": "Cardioprotective activity against myocardial ischemia/reperfusion induced C57BL/6J mouse model assessed as reduction in myocardial infarction area at 10 mg/kg (reference value: 72.19%)", "assay_type": "functional", "parameters": "scale not given: the % may be the effect or the level left"}, "[24]": {"test_system": "HCT-116", "experiment": "Antiproliferative activity against human HCT-116 cells assessed as inhibition of cell growth by MTT assay"}, "[25]": {"test_system": "H9c2", "experiment": "Cardioprotective activity in H2O2 induced myocardial injury in rat H9c2 cells assessed as downregulation of IL-1 beta mRNA level at upto 8 uM by q-PCR analysis", "assay_type": "functional, cell-based"}, "[26]": {"experiment": "Half life in male Sprague-Dawley rat at 7 mg/kg,iv measured upto 8 hrs by UPLC-MS/MS analysis", "assay_type": "ADME, organism-based", "settings": "in vivo"}, "[27]": {"test_system": "MGC-803", "experiment": "Induction of apoptosis in human MGC-803 cells assessed as necrotic cells at 1 uM measured after 48 hrs by Annexin V-EGFP and PI staining based flow cytometry analysis (reference value: 3.90%)", "assay_type": "functional"}, "[28]": {"test_system": "MGC-803", "experiment": "Induction of apoptosis in human MGC-803 cells assessed as early apoptotic cells at 2 uM measured after 48 hrs by Annexin V-EGFP and PI staining based flow cytometry analysis (reference value: 0.66%)", "assay_type": "functional"}},
  "note": "Activity calls are given as the source filed them. The rule behind the calls is not given here.",
  "data": [
    {"compound": "O=C(NO)c1ccc(CNC(=O)c2cc(-c3ccc(F)cc3)cn3ccnc23)cc1", "values": [
      {"measurement": "clearance", "setting": "[1]", "result": 134, "unit": "mL/min/kg"},
      {"measurement": "IC50", "setting": "[2]", "result": 0.0031, "unit": "µM"},
      {"measurement": "Tmax", "setting": "[3]", "result": 1, "unit": "h"},
      {"measurement": "Activity", "setting": "[4]", "result": "inactive"},
      {"measurement": "Activity", "setting": "[5]", "result": "Dose-Dependent Effect"},
      {"measurement": "IC50", "setting": "[6]", "result": 2.25, "unit": "µM"},
      {"measurement": "Activity", "setting": "[7]", "result": "Active"},
      {"measurement": "Activity", "setting": "[8]", "result": "Dose-Dependent Effect"},
      {"measurement": "Activity", "setting": "[9]", "result": "Dose-Dependent Effect"},
      {"measurement": "Activity", "setting": "[10]", "result": 17.6, "unit": "%"},
      {"measurement": "Activity", "setting": "[11]", "result": "inactive"},
      {"measurement": "IC50", "setting": "[12]", "result": 4.5, "unit": "µM"},
      {"measurement": "AUC(0-t) at 8 h", "setting": "[13]", "result": 740, "unit": "ng·h/mL"},
      {"measurement": "Activity", "setting": "[14]", "result": "inactive"},
      {"measurement": "Activity", "setting": "[15]", "result": 5.97, "unit": "%"},
      {"measurement": "Activity", "setting": "[16]", "result": "Active"},
      {"measurement": "Activity", "setting": "[17]", "result": "Active"},
      {"measurement": "Cmax", "setting": "[18]", "result": 807, "unit": "ng/mL"},
      {"measurement": "IC50", "setting": "[19]", "result": 7.43, "unit": "µM"},
      {"measurement": "Activity", "setting": "[20]", "result": 0.48, "unit": "%"},
      {"measurement": "Activity", "setting": "[21]", "result": "Active"},
      {"measurement": "Activity", "setting": "[22]", "result": "Active"},
      {"measurement": "Activity", "setting": "[23]", "result": 37.64, "unit": "%"},
      {"measurement": "IC50", "setting": "[24]", "result": "> 10", "unit": "µM"},
      {"measurement": "Activity", "setting": "[25]", "result": "Active"},
      {"measurement": "half-life", "setting": "[26]", "result": 2.19, "unit": "h"},
      {"measurement": "Activity", "setting": "[27]", "result": 4.7, "unit": "%"},
      {"measurement": "Activity", "setting": "[28]", "result": 0.7, "unit": "%"}
    ]}
  ]
}
